Where only a bound is given, the exact number is not on record here.

This note sets out measurements from a melting point compilation (Tetko et al.; mined from patent text by program, amines drawn as free bases though some values may be those of a salt).

A word on the melting point: it is the temperature, or range, at which the solid turns liquid. As to `COc1cccc(-c2nn(Cc3ccccc3)c3ncnc(Cl)c23)c1`, the melting point lay in the range of 99 to 101 °C.
The value for `CC(C)(C)C(=O)c1c[nH]c2ncc(-c3cccc(N4CC5(COC5)C4)c3)nc12` was 260 to 262 °C; that for `CCOC(=O)C1=Cc2cc(Br)ccc2N(C=O)CC1` was 150 to 152 °C.
`O=C(CC1CCCCC1)Nc1c(Cl)ccc2nc(CCCNCCCO)ccc12`: the melting point was in the range of 159 to 163 °C.
The same measure for `COc1ccc(-n2nc(CO)cc2-c2ccc(C)cc2)cc1`: 100 to 102 °C; for `OCC12CN3CN(C(c4ccccc4)N(C1)C3c1ccccc1)C2c1ccccc1` (stereo unspecified): 91 to 93 °C; for `CCCn1cnc(C(N)=O)c1NC(=O)c1ccccc1OCC`: 182 to 184 °C.
Compound `O=C(O)c1ccc(C(=O)/C=C/c2ccc(-c3cccs3)cc2F)cc1` registered a melting point of over 260 °C.
With `COc1cccc(-c2cc(N)c3cc(OC)ccc3n2)c1`, the melting point was in the range of 148 to 149 °C.
`COc1cccc(Oc2c(NS(=O)(=O)c3ccc(C(C)(C)C)cc3)ncnc2SCCOc2ncccn2)c1` had a melting point of 168 °C.
Turning to `CN1CCC(N(C)S(=O)(=O)c2ccc(Nc3nc(Cl)cc(Nc4ccc(F)cc4)n3)cc2)CC1`, the melting point was 140 to 142 °C.
As to `COc1ccc(Sc2cc(C(=O)O)c[nH]2)cc1`, the melting point lay in the range of 144 to 147 °C.
The same measure for `O=[N+]([O-])c1ccc2sc(NCCCO)nc2c1`: 140 to 144 °C.
The same measure for `COc1ccc2c(Cl)cc(-c3ccc(C)cc3)nc2c1`: 129 to 131 °C.
The same measure for `NS(=O)(=O)c1ccc(-n2nc(C(F)(F)F)cc2-c2ccc(-c3ncco3)cc2)cc1`: 215 to 217 °C; for `CCCCCCCCCCNC(=O)N(C)O`: 74 to 76 °C.
Compound `Cn1ncc(/C=C/C(=O)Nc2ccc(CNC(=O)c3ccccc3)cc2)c1-c1ccc(F)cc1` came in with a melting point of 250 to 251 °C.
The value for `CCCc1c(O)ccc2oc(Cc3ccc(O)cc3)c(C)c12` was 138 to 142 °C; that for `c1cc(N2CCCC2)ncc1C12CCN(CC1)C2` was 119 to 121 °C.
The same measure for `CN(C(=O)OCC(Cl)(Cl)Cl)C1CN(C(=O)Nc2ccc(C(F)(F)F)cc2)N=C1c1ccc(Cl)cc1` (stereo unspecified): 169 to 170 °C; for `O=C(O)c1c(C(F)(F)F)ccc(Cl)c1Cl`: 88 to 89 °C.
On to `C#CCn1c(C#N)ccc1-c1ccc2c(c1)C(C)(C)OC(=O)N2`, for which the melting point was 222 to 224 °C.
The value for `CC1CC(=O)NN=C1c1ccc(-n2cnc3c2CCCC3)cc1` (stereo unspecified) was 199 to 200 °C; that for `Nc1ccc(C2CCNCC2)cc1` was 85 to 87 °C.
`Cc1cc2c(c(C3=NNC(=O)CC3C)c1)OCC(=O)N2` (stereo unspecified) gave a melting point of 252 to 254 °C.
The same measure for `Cc1cc(-c2cc(F)c(F)cc2-c2ccc(S(N)(=O)=O)cc2)ccc1F`: 152 °C.
`CC(C)(C)n1nnc(NC(=O)C2c3ccccc3Oc3ccccc32)n1`: the melting point lay in the range of 230 to 231 °C.
In turn, `Oc1cccc(CN2CCOCC2)c1` had a melting point of 113 to 115 °C.
`S=C(Nc1ccccc1)N(Cc1ccc(Cl)cc1)C1CCCC1`: the melting point lay in the range of 129 to 132 °C.
Take `NS(=O)(=O)C1C=CC=CC1(CCNC(=O)C=Cc1cccs1)OCCOC(F)(F)F` (stereo unspecified): the melting point lay in the range of 203 to 205 °C.
Compound `ClCc1c2ccccc2c(Cc2ccccc2)c2ccccc12` registered a melting point of 146 to 147 °C.
The same measure for `CCCCCCCc1cn(CC(O)c2ccccc2)c(=N)s1` (stereo unspecified): 124 °C.
The value for `CCc1nn2ccccc2c1[N+](=O)[O-]` was 118 to 121 °C; that for `Cc1cccc(C)c1NCCNCC(O)COc1cccc2[nH]c3ccccc3c12` (stereo unspecified) was 162 to 163 °C; that for `Nc1ccc(Sc2ccccc2)nc1N` was 119 to 122 °C.
Take `Cc1ccc(N=CN(C)SN(C)c2ccccc2)c(C)c1`: the melting point lay within 72 to 73.5 °C.
As for `Cc1noc(C)c1Cn1cc(-n2c(=O)n(C)n(Cc3ccccc3)c2=O)cn1`, the melting point is 124 to 126 °C.
The same measure for `CCN1C(=O)Cc2cc(C(=O)c3cccs3)ccc21`: 158 to 160 °C.
`CNC(=O)COC(=O)N1CCN(CCc2cc(-c3ccc(Cl)cc3)no2)CC1` came in with a melting point of 130 to 132 °C.
`COC(=O)C1=CC(C(=O)c2cc(Br)cc(Br)c2O)=CN2CCc3c([nH]c4ccccc34)C12C(=O)OC` (stereo unspecified) gave a melting point of 131 °C.
For `CCC(=O)c1cc(CC)c(OC)cc1OC`, the melting point lay within 64 to 65 °C.
The value for `Nc1nc(Cc2ccc(OCc3ccccc3)cc2)nc2nc(-c3ccco3)nn12` was 220 to 222 °C; that for `Cc1ccc(S(=O)(=O)NC(=O)N2CCN(C(=O)c3ccc(Nc4ccnc5cc(C(F)(F)F)ccc45)cc3)CC2)cc1` was 253 to 255 °C.
In the case of `CCOC(=O)c1cn(-c2c(F)cc(F)cc2F)c2nc(Cl)c(F)cc2c1=O`, the melting point fell in the range of 158 to 160 °C.
`N#CC1CN1C(=O)NC(=O)CCl` (stereo unspecified) showed a melting point of 152 to 155 °C.
The compound `CC(C)C(=O)Nc1cn(-c2cncc(F)c2)nc1CCl` registered a melting point of 172 to 177 °C.
`Cc1ccccc1CCC(=O)NCc1ncc(C(F)(F)F)cc1Cl` displayed a melting point of 152 to 153 °C.
Take `COc1ccc(N2CCN(Cc3n[nH]c4c(Cl)cccc34)CC2)cc1`: the melting point lay within 190 to 191 °C.
As for `Cc1ccc(S(=O)(=O)N(F)C(C)(C)C)cc1`, the melting point is 59 to 62.5 °C.
The value for `C=CS(=O)(=O)C(C)(C)S(=O)(=O)C=C` was 121 to 122 °C.
`C1=C(c2ccc3c(c2)OCCO3)CCN(CCc2cccc3ccccc23)C1` gave a melting point of 170 to 180 °C.
The compound `CCCCC(Cc1cccnc1)(C(=O)NO)S(=O)(=O)c1ccc(OC)cc1` (stereo unspecified) showed a melting point of 65 °C.
`COc1ccc(-c2cc3c(OC)cc(OC)cc3nc2OCC(=O)OCc2ccccc2)cc1`: the melting point fell in the range of 114 to 115 °C.
Consider `NC(=O)N(O)Cc1ccc(N2CCC(=O)CC2)cc1`, for which the melting point lay in the range of 138 to 140 °C.
Compound `CCCCOC(=O)c1c(-c2ccncc2)[nH]c(-c2ccncc2)c1C` returned a melting point of 182 to 186 °C.
The same measure for `O=c1ccsn1C(O)C(Cl)(Cl)Cl` (stereo unspecified): 117 to 118 °C.
The same measure for `COc1cccc(C(=O)Nc2cnn(Cc3c(C)noc3C)c2)c1`: 127 to 129 °C; for `O=C(O)CCC(=O)c1ccc2[nH]c3ncc(Cl)cc3c2c1`: 243 °C; for `CC1=NC(=Cc2ccc(F)cc2)C(=O)O1`: 156 °C.
The value for `CC(=O)OC1CSC(Oc2cccc(-c3ncccc3F)c2)C(OC(C)=O)C1OC(C)=O` (stereo unspecified) was 51 °C; that for `OCC1OC(n2cnc3c(N4CCCC4)nc(Cl)nc32)C(O)C1O` (stereo unspecified) was 229 °C; that for `CCOCC1(C)CCCSc2cc(/C=C/c3ccc(C(=O)O)cc3)ccc21` (stereo unspecified) was 186 to 187 °C.
`Cc1ccc(NC(=O)N[C@@H]2N=C(c3ccccc3)c3ccccc3N(C)C2=O)cc1` came in with a melting point of 233 to 235 °C.
Regarding `COC1=C(OC)C(=O)C(Cl)=C(C)C1=O`, the melting point is 66 to 68 °C.
The same measure for `Cc1oc(-c2ccccc2)nc1COc1ccc(Cn2cc(CCC(=O)O)c(O)n2)cc1`: 197 to 198 °C.
The same measure for `O=C(Nc1ccc(O)cn1)C(CC1CCCC1)c1ccc(Cl)c(Cl)c1` (stereo unspecified): 79 to 81 °C.
